According to patent US5229371A, “Chemical modification of elsamicin A at the 3' and/or 4' OH groups” (Bristol-Myers Squibb Company, priority 1992, dated 1993):
≈ marks a conversion by molar mass, not a printed value. Where two headings read alike, the source gives them in different places.

Key:
B16 melanoma = assay: In vivo antitumor activity against B16 melanoma in mice (Q4Dx3, ip); design: species or system mouse (male BDF1); conditions: for T/C % of MST / No. of survivors/tested on day 50: Q4D × 3, ip
Description: (§1) In vivo antitumor activity of the above five derivatives was tested in the lymphocytic leukemia P388 and melanoma B16 systems. Female CDF1 (for P388) and male BDF1 (for B16) mice were inoculated by ip injection at 10^6 P388 cells and 0.5 ml of a 10% B16 brei per mouse, respectively (day 0).
(§2) The percent increase of median survival time (MST) of treated animals over that of untreated control animals was determined and reported as T/C %.

B16-F10 melanoma cells = assay: cells; conditions: Mus musculus, B16-F10, 72 h, read-out: Cytotoxicity IC50
Description: For in vitro cytotoxicity experiment, murine melanoma B16-F10 cells were grown and maintained in Eagle's minimum essential medium (Nissui), which contains kanamycin (60 μg/ml), supplemented with heat-inactivated fetal calf serum (10%) and non-essential amino acids (0.6%) at 37° C. under a humidified atmosphere in a 5% CO2 incubator. Exponentially growing B16-F10 cells were harvested, counted and suspended in the culture medium at the concentration of 2.0×10^4 cells/ml. The cell suspension (180 μl) was planted into wells of a 96-well microtiter plate and incubated for 24 hours. Test compound (20 μl) were added to the wells and the plates were further incubated for 72 hours. The cytotoxic activity was colorimetrically determined at 540 nm after staining viable cells with neutral red solution.

P388 leukemia = assay: In vivo antitumor activity against lymphocytic leukemia P388 in mice (Q1Dx3, ip); design: species or system mouse (female CDF1); conditions: for T/C % of MST: Q1D × 3, ip; for minimum effective dose (MED) compared with elsamicin A: T/C ≥125 significant
Description: as §1, §2

lymphoid leukemia L1210 [1] = conditions: L1210, in vivo; cited from earlier work
anaerobic bacteria = conditions: cited from earlier work
lymphoid leukemia L1210 [2] = conditions: L1210, in vitro; cited from earlier work
[3] = test system: aerobic gram-positive bacteria; conditions: cited from earlier work
leukemia P388 [4] = conditions: P388, in vitro; cited from earlier work
melanotic melanoma B16 [5] = conditions: B16, in vivo; cited from earlier work
melanotic melanoma B16 [6] = conditions: B16, in vitro; cited from earlier work
leukemia P388 [7] = conditions: P388, in vivo; cited from earlier work

## COC1OC2C(C)OC(Oc3cccc4c(O)c5c(=O)oc6ccc(C)c7c(=O)oc(c34)c5c67)C(OC3OC(C)C(O)C(OC)C3N)C2(C)O1 (stereo not shown) [Compound 6d, 3',4'-O-Methoxymethylideneelsamicin A]
B16 melanoma; B16, 0.1 mg/kg/day
  T/C % of MST: 120%
B16 melanoma; B16, 0.3 mg/kg/day
  T/C % of MST: 137%
B16 melanoma; B16, 1 mg/kg/day
  T/C % of MST: 167%
B16 melanoma; B16, 3 mg/kg/day
  T/C % of MST: 283%
B16 melanoma; B16, 10 mg/kg/day
  No. of survivors/tested on day 50: 3/4
  T/C % of MST: ≥ 333%
B16 melanoma; B16 system
  response / therapeutic activity (in words): extremely potent therapeutic activity
B16 melanoma; B16 system, 3 and 10 mg/kg/day
  T/C % values compared with elsamicin A (1): higher T/C % values
B16-F10 melanoma cells
  IC50: 0.05 µg/mL (≈ 0.0719 µM)
P388 leukemia; P388, 0.1 mg/kg/day
  T/C % of MST: 124%
P388 leukemia; P388, 0.3 mg/kg/day
  T/C % of MST: 137%
P388 leukemia; P388, 1 mg/kg/day
  T/C % of MST: 167%
P388 leukemia; P388, 3 mg/kg/day
  T/C % of MST: 167%
P388 leukemia; P388, 10 mg/kg/day
  T/C % of MST: 224%
P388 leukemia; P388, 20 mg/kg/day
  T/C % of MST: Tox
P388 leukemia; P388 system
  minimum effective dose (MED) compared with elsamicin A: as active as the parent compounds

## COC1C(N)C(OC2C(Oc3cccc4c(O)c5c(=O)oc6ccc(C)c7c(=O)oc(c34)c5c67)OC(C)C3OC4(CCCCC4)OC32C)OC(C)C1O (stereo not shown) [Compound 6b, 3',4'-O-Cyclohexylideneelsamicin A]
B16 melanoma; B16, 0.3 mg/kg/day
  T/C % of MST: 111%
B16 melanoma; B16, 1 mg/kg/day
  T/C % of MST: 132%
B16 melanoma; B16, 3 mg/kg/day
  T/C % of MST: 175%
B16 melanoma; B16, 10 mg/kg/day
  T/C % of MST: 200%
B16-F10 melanoma cells
  IC50: 0.04 µg/mL (≈ 0.0545 µM)
P388 leukemia; P388, 0.3 mg/kg/day
  T/C % of MST: 120%
P388 leukemia; P388, 1 mg/kg/day
  T/C % of MST: 140%
P388 leukemia; P388, 3 mg/kg/day
  T/C % of MST: 175%
P388 leukemia; P388, 10 mg/kg/day
  T/C % of MST: 165%

## COC1C(N)C(OC2C(Oc3cccc4c(O)c5c(=O)oc6ccc(C)c7c(=O)oc(c34)c5c67)OC(C)C3OC(C)(C)OC32C)OC(C)C1O (stereo not shown) [Compound 6a, 3',4'-O-Isopropylideneelsamicin A]
B16 melanoma; B16, 0.1 mg/kg/day
  T/C % of MST: 105%
B16 melanoma; B16, 0.3 mg/kg/day
  T/C % of MST: 116%
B16 melanoma; B16, 1 mg/kg/day
  T/C % of MST: 166%
B16 melanoma; B16, 3 mg/kg/day
  T/C % of MST: 192%
B16 melanoma; B16, 10 mg/kg/day
  T/C % of MST: 82%
B16-F10 melanoma cells
  IC50: 0.025 µg/mL (≈ 0.036 µM)
P388 leukemia; P388, 0.1 mg/kg/day
  T/C % of MST: 120%
P388 leukemia; P388, 0.3 mg/kg/day
  T/C % of MST: 140%
P388 leukemia; P388, 1 mg/kg/day
  T/C % of MST: 170%
P388 leukemia; P388, 3 mg/kg/day
  T/C % of MST: 210%
P388 leukemia; P388 system
  minimum effective dose (MED) compared with elsamicin A: as active as the parent compounds

## COC1C(N)C(OC2C(Oc3cccc4c(O)c5c(=O)oc6ccc(C)c7c(=O)oc(c34)c5c67)OC(C)C(OC3CCCCO3)C2(C)O)OC(C)C1O (stereo not shown) [Compound 8, 4'-O-Tetrahydropyranylelsamicin A]
B16 melanoma; B16, 0.1 mg/kg/day
  T/C % of MST: 133%
B16 melanoma; B16, 0.3 mg/kg/day
  T/C % of MST: 159%
B16 melanoma; B16, 1 mg/kg/day
  T/C % of MST: 248%
B16 melanoma; B16, 3 mg/kg/day
  No. of survivors/tested on day 50: 1/4
  T/C % of MST: ≥ 281%
B16 melanoma; B16, 10 mg/kg/day
  No. of survivors/tested on day 50: 2/4
  T/C % of MST: ≥ 330%
B16 melanoma; B16, 20 mg/kg/day
  No. of survivors/tested on day 50: 3/4
  T/C % of MST: ≥ 370%
B16 melanoma; B16 system
  MED and T/C % values compared with elsamicin A (1): better than elsamicin A (1)
B16 melanoma; B16 system, 3~20 mg/kg/day
  survivors on day 50 (in words): Some survivors
B16-F10 melanoma cells
  IC50: 0.04 µg/mL (≈ 0.0542 µM)
P388 leukemia; P388, 0.1 mg/kg/day
  T/C % of MST: 130%
P388 leukemia; P388, 0.3 mg/kg/day
  T/C % of MST: 145%
P388 leukemia; P388, 1 mg/kg/day
  T/C % of MST: 168%
P388 leukemia; P388, 3 mg/kg/day
  T/C % of MST: 190%
P388 leukemia; P388, 10 mg/kg/day
  T/C % of MST: 225%
P388 leukemia; P388, 20 mg/kg/day
  T/C % of MST: Tox
P388 leukemia; P388 system
  T/C % values (in words): high T/C % values
  minimum effective dose (MED) compared with elsamicin A: three times more potent

## COC1C(N)C(OC2C(Oc3cccc4c(O)c5c(=O)oc6ccc(C)c7c(=O)oc(c34)c5c67)OC(C)C(O)C2(C)O)OC(C)C1O (stereo not shown) [Compound 1, Elsamicin A]
Lymphoid leukemia L1210 [1]
  activity against murine tumor cells: exerts activity
Anaerobic bacteria
  antibacterial activity: exhibits antibacterial activity
Lymphoid leukemia L1210 [2]
  activity against murine tumor cells: exerts activity
B16 melanoma; B16, 0.1 mg/kg/day
  T/C % of MST: 116%
B16 melanoma; B16, 0.3 mg/kg/day
  T/C % of MST: 139%
B16 melanoma; B16, 1 mg/kg/day
  T/C % of MST: 179%
B16 melanoma; B16, 3 mg/kg/day
  No. of survivors/tested on day 50: 2/12
  T/C % of MST: ≥ 216%
B16 melanoma; B16, 10 mg/kg/day
  No. of survivors/tested on day 50: 2/12
  T/C % of MST: ≥ 298%
[3]
  antibacterial activity: exhibits antibacterial activity
B16-F10 melanoma cells
  IC50: 0.03 µg/mL (≈ 0.0459 µM)
Leukemia P388 [4]
  activity against murine tumor cells: exerts activity
Melanotic melanoma B16 [5]
  activity against murine tumor cells: exerts activity
Melanotic melanoma B16 [6]
  activity against murine tumor cells: exerts activity
P388 leukemia; P388, 0.1 mg/kg/day
  T/C % of MST: 123%
P388 leukemia; P388, 0.3 mg/kg/day
  T/C % of MST: 140%
P388 leukemia; P388, 1 mg/kg/day
  T/C % of MST: 155%
P388 leukemia; P388, 3 mg/kg/day
  T/C % of MST: 180%
P388 leukemia; P388, 10 mg/kg/day
  T/C % of MST: 190%
P388 leukemia; P388, 20 mg/kg/day
  T/C % of MST: Tox
Leukemia P388 [7]
  activity against murine tumor cells: exerts activity

## COC1C(N)C(OC2C(Oc3cccc4c(O)c5c(=O)oc6ccc(C)c7c(=O)oc(c34)c5c67)OC(C)C3OC(c4ccccc4)OC32C)OC(C)C1O (stereo not shown) [Compound 6c, 3',4'-O-Benzylideneelsamicin A]
B16 melanoma; B16, 0.1 mg/kg/day
  T/C % of MST: 121%
B16 melanoma; B16, 0.3 mg/kg/day
  T/C % of MST: 114%
B16 melanoma; B16, 1 mg/kg/day
  T/C % of MST: 136%
B16 melanoma; B16, 3 mg/kg/day
  T/C % of MST: 179%
B16 melanoma; B16, 10 mg/kg/day
  T/C % of MST: 186%
B16-F10 melanoma cells
  IC50: 0.07 µg/mL (≈ 0.0944 µM)
P388 leukemia; P388, 0.1 mg/kg/day
  T/C % of MST: 110%
P388 leukemia; P388, 0.3 mg/kg/day
  T/C % of MST: 130%
P388 leukemia; P388, 1 mg/kg/day
  T/C % of MST: 150%
P388 leukemia; P388, 3 mg/kg/day
  T/C % of MST: 165%
P388 leukemia; P388, 10 mg/kg/day
  T/C % of MST: 180%
P388 leukemia; P388, 20 mg/kg/day
  T/C % of MST: Tox
P388 leukemia; P388 system
  minimum effective dose (MED) compared with elsamicin A: as active as the parent compounds
